Test results as given in patent US9302999B2, “Substituted triazoles as herbicides” (E. I. DU PONT DE NEMOURS AND COMPANY, priority 2012, dated 2016).

Columns and labels:
Assay type in all cases: in vivo
[1] = test system: galium (catchweed bedstraw, Galium aparine); test: Test C pre-/postemergence: galium
In short: (§1)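 Preemergence on seeds in loam/sand, postemergence on 2–18 cm (1–4-leaf) plants in peat-based medium; compounds in non-phytotoxic solvent with surfactant. After 13–15 days in greenhouse, visual rating versus controls, 0 (no effect) to 100 (complete control).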

rice (Oryza sativa) = test: Test B flooded paddy: rice; settings: Flood, applied to paddy water at 2-leaf stage, visually evaluated after 13 to 15 days
In short: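 Plants were grown to the 2-leaf stage and pots flooded to 3 cm above soil. Compounds were applied directly into the paddy water, with depth kept for the test. After 13–15 days in greenhouse, response was rated visually against controls on a 0 (no effect) to 100 (complete control) scale.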

[2] = test system: velvetleaf (Abutilon theophrasti); test: Test C pre-/postemergence: velvetleaf
In short: as §1

[3] = test system: ducksalad (Heteranthera limosa); test: Test C flooded paddy test: ducksalad; settings: Heteranthera limosa, scale 0 to 100 (0 no effect, 100 complete control), read-out: Plant response rating, Ducksalad
In short: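 Plants at 2-leaf stage in pots flooded 3 cm above soil; compounds applied directly into the paddy water, depth maintained. Visual rating against controls after 13–15 days in greenhouse, scale 0 (no effect) to 100 (complete control).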

[4] = test system: oilseed rape (Brassica napus); test: Test D pre-/postemergence: oilseed rape
In short: (§2)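 Species were sown in silt loam and sprayed preemergence, or grown in peat/vermiculite medium and sprayed postemergence at the 1- to 4-leaf stage (2–18 cm), with compounds in a surfactant-containing solvent. Injury was visually rated against untreated controls after 14–21 days, on a 0 (no effect) to 100 (complete control) scale.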

[5] = test system: cocklebur (common cocklebur, Xanthium strumarium); test: Test C pre-/postemergence: cocklebur
In short: as §1

[6] = test system: pigweed (Amaranthus retroflexus); test: Test D pre-/postemergence: pigweed
In short: as §2

[7] = Postemergence, 31 g ai/ha, scale 0 to 100 (0 no effect, 100 complete control)
[8] = Postemergence, 62 g ai/ha, scale 0 to 100 (0 no effect, 100 complete control)
[9] = Postemergence, 125 g ai/ha, scale 0 to 100, 0 no effect, 100 complete control
[10] = Postemergence, 250 g ai/ha, scale 0 to 100
[11] = Preemergence, 31 g ai/ha, scale of 0 to 100, 0 is no effect, 100 is complete control
[12] = Preemergence, 125 g ai/ha, scale 0 to 100, 0 no effect, 100 complete control
[13] = Preemergence, 250 g ai/ha, scale 0 to 100, 0 no effect, 100 complete control
[14] = Preemergence, 62 g ai/ha, scale of 0 to 100, 0 is no effect, 100 is complete control
[15] = Preemergence, 16 g ai/ha, scale 0 (no effect) to 100 (complete control)
[16] = Preemergence, 31 g ai/ha, scale 0 (no effect) to 100 (complete control)
[17] = Postemergence, 250 g ai/ha, scale 0 to 100 (0 no effect, 100 complete control)
[18] = Postemergence, 16 g ai/ha, scale 0 to 100
[19] = Preemergence, 16 g ai/ha, scale 0 to 100 (0 no effect, 100 complete control)
[20] = Preemergence, 31 g ai/ha, scale 0 to 100 (0 no effect, 100 complete control)
[21] = Preemergence, 62 g ai/ha, scale 0 to 100
[22] = Preemergence, 125 g ai/ha, scale 0 to 100
[23] = Preemergence, 250 g ai/ha, scale 0 to 100

SMILES: Cc1nn(-c2ccc(C(F)(F)F)c(F)c2)nc1Cc1ccnc(C(F)(F)F)c1 [Compound 162]
- Plant response rating, Galium [1, 7]: 75
- Plant response rating, Galium [1, 8]: 75
- Plant response rating, Galium [1, 9]: 80
- Plant response rating, Galium [1, 10]: 95
- Plant response rating, Galium [1, 11]: 100
- Plant response rating, Galium [1, 12]: 100
- Plant response rating, Galium [1, 13]: 100
- Plant response rating, Rice (0 to 100 scale, 0 is no effect, 100 is complete control) (rice (Oryza sativa); 125 g ai/ha): 25
- Plant response rating, Velvetleaf [2, 7]: 35
- Plant response rating, Velvetleaf [2, 8]: 55
- Plant response rating, Velvetleaf [2, 9]: 60
- Plant response rating, Velvetleaf [2, 10]: 85
- Plant response rating, Velvetleaf [2, 11]: 55
- Plant response rating, Velvetleaf [2, 14]: 80
- Plant response rating, Velvetleaf [2, 12]: 100
- Plant response rating, Velvetleaf [2, 13]: 100

SMILES: CCOc1nn(-c2ccc(Br)cc2)nc1Cc1ccnc(C(F)(F)F)c1 [Compound 189]
- Plant response rating, Galium [1, 15]: 80
- Plant response rating, Galium [1, 16]: 80
- Plant response rating, Galium [1, 14]: 80
- Plant response rating, Galium [1, 12]: 95
- Plant response rating, Rice (0 to 100 scale, 0 is no effect, 100 is complete control) (rice (Oryza sativa); 125 g ai/ha): 35
- Plant response rating, Velvetleaf [2, 15]: 10
- Plant response rating, Velvetleaf [2, 16]: 15
- Plant response rating, Velvetleaf [2, 14]: 40
- Plant response rating, Velvetleaf [2, 12]: 60

SMILES: CCc1nn(-c2ccc(F)cc2)nc1Oc1ccnc(C(F)(F)F)c1 [Compound 166]
- Plant response rating, Galium [1, 7]: 50
- Plant response rating, Galium [1, 8]: 50
- Plant response rating, Galium [1, 9]: 60
- Plant response rating, Galium [1, 10]: 80
- Plant response rating, Galium [1, 16]: 10
- Plant response rating, Galium [1, 14]: 10
- Plant response rating, Galium [1, 12]: 90
- Plant response rating, Galium [1, 13]: 100
- Plant response rating, Rice (0 to 100 scale, 0 is no effect, 100 is complete control) (rice (Oryza sativa); 125 g ai/ha): 80
- Plant response rating, Velvetleaf [2, 7]: 10
- Plant response rating, Velvetleaf [2, 8]: 20
- Plant response rating, Velvetleaf [2, 9]: 20
- Plant response rating, Velvetleaf [2, 10]: 30
- Plant response rating, Velvetleaf [2, 16]: 0
- Plant response rating, Velvetleaf [2, 14]: 0
- Plant response rating, Velvetleaf [2, 12]: 15
- Plant response rating, Velvetleaf [2, 13]: 60

SMILES: Cc1nn(-c2ccc(F)cc2)nc1Oc1ccnc(C(F)(F)F)c1 [Compound 129, 4-[[2-(4-fluorophenyl)-5-methyl-2H-1,2,3-triazol-4-yl]oxy]-2-(trifluoromethyl)pyridine]
- pest or weed control at 125 g/ha ([3]; Flood (flooded paddy test), 125 g ai/ha, visual rating after 13 to 15 days): 80%
- pest or weed control at 250 g/ha ([3]; Flood (flooded paddy test), 250 g ai/ha, visual rating after 13 to 15 days): 90%
- pest or weed control at 31 g/ha ([3]; Flood, 31 g ai/ha): 70%
- pest or weed control at 62 g/ha ([3]; Flood, 62 g ai/ha): 75%
- Plant response rating: Oilseed Rape [4, 7]: 80
- Plant response rating: Oilseed Rape [4, 8]: 95
- Plant response rating: Oilseed Rape [4, 9]: 100
- Plant response rating: Oilseed Rape [4, 17]: 100
- Plant response rating, Oilseed Rape [4, 18]: 80
- Plant response rating, Oilseed Rape [4, 19]: 0
- Plant response rating, Oilseed Rape [4, 20]: 0
- Plant response rating, Oilseed Rape [4, 21]: 10
- Plant response rating, Oilseed Rape [4, 22]: 30
- Plant response rating, Oilseed Rape [4, 23]: 60
- Plant response rating, Cocklebur [5, 7]: 5
- Plant response rating, Cocklebur [5, 8]: 10
- Plant response rating, Cocklebur [5, 9]: 15
- Plant response rating, Cocklebur [5, 10]: 25
- Plant response rating, Cocklebur [5, 11]: 0
- Plant response rating, Cocklebur ([5]; Preemergence, 62 g ai/ha, scale 0 to 100, 0 no effect, 100 complete control): 0
- Plant response rating, Cocklebur [5, 12]: 0
- Plant response rating, Cocklebur [5, 13]: 0
- Plant response rating: Pigweed [6, 7]: 100
- Plant response rating: Pigweed [6, 8]: 100
- Plant response rating: Pigweed [6, 9]: 100
- Plant response rating: Pigweed [6, 17]: 100
- Plant response rating, Pigweed [6, 18]: 100
- Plant response rating, Pigweed [6, 19]: 30
- Plant response rating, Pigweed [6, 20]: 80
- Plant response rating, Pigweed [6, 21]: 90
- Plant response rating, Pigweed [6, 22]: 100
- Plant response rating, Pigweed [6, 23]: 100
- Plant response rating, Galium [1, 7]: 60
- Plant response rating, Galium [1, 8]: 85
- Plant response rating, Galium [1, 9]: 90
- Plant response rating, Galium [1, 10]: 90
- Plant response rating, Galium [1, 11]: 85
- Plant response rating, Galium [1, 14]: 100
- Plant response rating, Galium [1, 12]: 100
- Plant response rating, Galium [1, 13]: 100
- Plant response rating, Velvetleaf [2, 7]: 45
- Plant response rating, Velvetleaf [2, 8]: 45
- Plant response rating, Velvetleaf [2, 9]: 80
- Plant response rating, Velvetleaf [2, 10]: 100
- Plant response rating, Velvetleaf [2, 11]: 0
- Plant response rating, Velvetleaf [2, 14]: 10
- Plant response rating, Velvetleaf [2, 12]: 45
- Plant response rating, Velvetleaf [2, 13]: 95

SMILES: CCCc1nn(-c2ccc(C(F)(F)F)c(F)c2)nc1Oc1ccnc(C(F)(F)F)c1 [Compound 185]
- Plant response rating, Galium [1, 7]: 70
- Plant response rating, Galium [1, 8]: 80
- Plant response rating, Galium [1, 9]: 90
- Plant response rating, Galium [1, 17]: 90
- Plant response rating, Galium [1, 16]: 80
- Plant response rating, Galium [1, 14]: 100
- Plant response rating, Galium [1, 12]: 100
- Plant response rating, Galium [1, 13]: 100
- Plant response rating, Rice (0 to 100 scale, 0 is no effect, 100 is complete control) (rice (Oryza sativa); 250 g ai/ha): 65
- Plant response rating, Velvetleaf [2, 7]: 55
- Plant response rating, Velvetleaf [2, 8]: 80
- Plant response rating, Velvetleaf [2, 9]: 85
- Plant response rating, Velvetleaf [2, 17]: 90
- Plant response rating, Velvetleaf [2, 16]: 60
- Plant response rating, Velvetleaf [2, 14]: 80
- Plant response rating, Velvetleaf [2, 12]: 100
- Plant response rating, Velvetleaf [2, 13]: 100

SMILES: CCCc1nn(-c2ccc(F)cc2)nc1Cc1ccnc(C(F)(F)F)c1 [Compound 153]
- Plant response rating, Galium [1, 7]: 60
- Plant response rating, Galium [1, 8]: 65
- Plant response rating, Galium [1, 9]: 85
- Plant response rating, Galium [1, 10]: 85
- Plant response rating, Galium [1, 11]: 80
- Plant response rating, Galium [1, 14]: 98
- Plant response rating, Galium [1, 12]: 100
- Plant response rating, Galium [1, 13]: 100
- Plant response rating, Rice (0 to 100 scale, 0 is no effect, 100 is complete control) (rice (Oryza sativa); 250 g ai/ha): 60
- Plant response rating, Velvetleaf [2, 7]: 50
- Plant response rating, Velvetleaf [2, 8]: 60
- Plant response rating, Velvetleaf [2, 9]: 65
- Plant response rating, Velvetleaf [2, 10]: 95
- Plant response rating, Velvetleaf [2, 14]: 85
- Plant response rating, Velvetleaf [2, 12]: 95
- Plant response rating, Velvetleaf [2, 13]: 100
